Source: US12344623B2, “Thiazolopyridine derivatives as adenosine receptor antagonists” (Merck Patent GmbH, priority 2019, dated 2025)

How the values were obtained:
Format in all cases: cell-based
human A2A receptor [1] = target: T1, human A2A receptor (Homo sapiens, UniProt P29274); assay: Human T cells, endogenous A2A receptor, cAMP, agonist NECA; details: read-out: hTcell data, cAMP, IC50
Procedure, shortened: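 Pan T cells isolated from fresh human blood PBMC, endogenously expressing Gs-coupled A2A, treated with compounds. Cellular cAMP measured by HTRF after 1 h; data normalized to inhibitor control and DMSO neutral control, then curve-fitted.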

human A2A receptor [2] = target: T1, human A2A receptor; assay: Functional A2A receptor activity, recombinant HEK293 cells, cAMP (HTRF), agonist NECA; parameters: expressed in transfected cells; host or cells: HEK293; details: read-out: Functional A2A receptor activity, HEK293, cAMP, IC50
Procedure, shortened: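 Cellular cAMP measured by HTRF after 30 min incubation of cells with forskolin, test compounds and agonist. Data normalized to inhibitor control and DMSO neutral control, then curve-fitted.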

mouse Pan T cells [3] = assay: mTcell assay, cAMP, agonist NECA; details: mouse Pan T cells, agonist NECA 1 uM
Procedure, shortened: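 Mouse splenic Pan T cells, pre-activated 48 hours with anti-CD3/CD28 beads, then plated at 50,000 cells/well in serum-free medium with 0.1% BSA. Compounds tested in 10-point dose response from 10 uM; after 30 minutes at 37° C, cAMP measured by HTRF.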

mouse Pan T cells [4] = assay: mTcell assay, IL-2, rescue of cytokine secretion, agonist NECA; details: mouse Pan T cells, CD3/CD28 activated, NECA 1 μM, IL-2 rescue, 24 h
From the text: Adenosine (Ado) in tumor microenvironment can inhibit T cell activity by signaling through A2A receptors and suppress cytokine secretion by T cells. […] Potential A2A antagonists or A2A/A2B dual antagonists can rescue T cells from this inhibition. Herein, we describe the in vitro system we established using Pan T cells from mouse spleens to screen potential A2A antagonists or A2A/A2B dual antagonists for their activity. The method described involves the use of CD3/CD28 pre-coated beads to stimulate Pan T cells purified from mouse splenocytes, combined with the addition of A2A agonist along with potential A2A or A2A/A2B dual antagonists to evaluate potentiation of T cell cytokine production.
Briefly, mouse Pan T cells are purified from spleens of BALB/c mice using Pan T cell isolation kit Mouse II (MACS Miltenyi biotech Cat # Order no. 130-095-130) according to manufacturer's protocol. The purified T cells are seeded in Nunc™ 96-Well Polystyrene Round Bottom Microwell Plates in RPMI medium with 10% heat inactivated fetal bovine serum. The cells are rested at 37° C. for 1 h before activating with CD3/CD28 pre-coated beads (Dynabeads™ Mouse T-Activator CD3/CD28; Cat #11456D). After 30 min the cells are treated with varying doses of test antagonist(s). […] After 24 h incubation IL-2 levels in the supernatants are measured by ELISAs according to manufacturer's protocol (R&D systems Cat #DY402 (IL-2)). Once the concentrations are calculated, the difference of cytokine concentration of DMSO control and agonist alone control is calculated and the percentage of rescue by each concentration of antagonist is calculated by using Microsoft Excel. These percentages of cytokine rescue in a dose dependent manner of antagonist is plotted in GraphPad Prism software and IC50 is calculated.

Measured: IC50

T1 sequence (P29274 whole entry): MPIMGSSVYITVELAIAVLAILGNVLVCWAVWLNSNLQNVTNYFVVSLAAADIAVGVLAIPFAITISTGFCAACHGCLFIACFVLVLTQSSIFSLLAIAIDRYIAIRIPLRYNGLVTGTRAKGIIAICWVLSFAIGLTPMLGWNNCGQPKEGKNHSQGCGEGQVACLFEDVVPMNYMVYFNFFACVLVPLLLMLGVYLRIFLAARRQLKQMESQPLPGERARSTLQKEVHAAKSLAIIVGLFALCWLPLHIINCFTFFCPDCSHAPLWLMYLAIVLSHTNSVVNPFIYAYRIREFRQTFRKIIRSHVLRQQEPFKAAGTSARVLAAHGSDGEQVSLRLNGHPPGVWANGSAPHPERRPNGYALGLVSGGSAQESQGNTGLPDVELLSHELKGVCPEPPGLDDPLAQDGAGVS

COc1ncc(C2=CCOCC2)c2sc(NC(=O)N3CC[C@@]4(CCCOC4)C3)nc12 [Compound 25, (S)-7-Oxa-2-aza-spiro[4.5]decane-2-carboxylic acid [7-(3,6-dihydro-2H-pyran-4-yl)-4-methoxy-thiazolo[4,5-c]pyridin-2-yl]-amide]
< 10 nM: all assays above
